Assay [1] concerns the target Adenosine receptors; A1 & A2a (Rattus norvegicus) (UniProt P25099+P30543). The assay can be described thus: Ratio of binding affinity against adenosine A1 receptor and adenosine A2a receptor. The format is protein assay.
The target of a further assay is Adenosine receptor A2a (Rattus norvegicus, UniProt P30543). The assay can be described thus: Inhibition of A2a agonist [3H]-CGS- 21680 binding to rat striatal membranes. It is filed as cell membranes, Membrane.
For another assay, the target named is T1, Adenosine receptor A1 (Rattus norvegicus, UniProt P25099).
T1 sequence (P25099 whole entry): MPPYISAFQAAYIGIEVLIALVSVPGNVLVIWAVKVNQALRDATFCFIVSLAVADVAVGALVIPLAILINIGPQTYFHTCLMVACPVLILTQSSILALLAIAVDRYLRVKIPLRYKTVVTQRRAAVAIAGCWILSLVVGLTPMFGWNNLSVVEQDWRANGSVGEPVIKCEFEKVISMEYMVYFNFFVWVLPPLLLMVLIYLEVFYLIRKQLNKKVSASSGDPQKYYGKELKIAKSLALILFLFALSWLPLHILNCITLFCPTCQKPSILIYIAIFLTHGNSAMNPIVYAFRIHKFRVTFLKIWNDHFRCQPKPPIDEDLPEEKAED
The assay can be described thus: Inhibition of A1 agonist (R)-[3H]N 6-(phenylisopropyl) adenosine binding to membranes from rat whole brain.

Each structure is given as a SMILES string. pKi: −log10 of the molar value. Bounds are passed on as bounds.

Sequence of Adenosine receptors; A1 & A2a (Rattus norvegicus) (P30543 whole entry, looked up, one chain of several): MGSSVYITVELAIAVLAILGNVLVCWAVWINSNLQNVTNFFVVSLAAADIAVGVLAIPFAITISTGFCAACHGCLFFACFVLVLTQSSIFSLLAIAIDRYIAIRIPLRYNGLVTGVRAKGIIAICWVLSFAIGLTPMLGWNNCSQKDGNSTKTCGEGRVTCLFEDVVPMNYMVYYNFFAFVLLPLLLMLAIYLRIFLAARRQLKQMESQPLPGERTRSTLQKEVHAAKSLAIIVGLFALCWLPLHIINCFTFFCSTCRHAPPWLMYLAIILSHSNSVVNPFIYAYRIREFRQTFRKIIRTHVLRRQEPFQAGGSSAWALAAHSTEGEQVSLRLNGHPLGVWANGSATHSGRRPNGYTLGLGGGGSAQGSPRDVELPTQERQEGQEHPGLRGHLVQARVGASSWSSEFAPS
Sequence of Adenosine receptor A2a (P30543 whole entry): as the sequence (P30543 whole entry, looked up, one chain of several) above

As for `CCCCC(Sc1nc(NC)c2cnn(-c3ccccc3)c2n1)C(N)=O` (centres undefined), in assay [1], the Ratio was 331.
Take `CCCSc1nc(SC(CC)C(N)=O)nc2c1cnn2-c1ccccc1` (centres undefined): the negative logarithm of the Ki (pKi) at Adenosine receptor A2a was under 4.41; on Adenosine receptor A1 it was 7.53. Also, the Ratio in assay [1] is 13000.

Values taken from ChEMBL document CHEMBL1128971, “Pyrazolo[3,4-d]pyrimidines: C4, C6 substitution leads to adenosine A1 receptor selectivity” (Bioorg Med Chem Lett, 1996).
